Two compounds from patent publication US20110318470A1, “Method For Improving Plant Health” (priority 2008, published 2011) can be followed below.

The subject of the experiment is Wheat plants (Trificum aestivum cv. Monopol). Description: Growth-promoting effect on wheat plants after foliar treatment. It counts as in vivo. The note with it: for Shoot-DW / Shoot-FW: 750 l/ha, greenhouse, mean of six pots with ten plants; for Shoot-DW / Shoot-FW / Shoot-DW % of control / Shoot-FW % of control: harvest after 18 days; for Shoot-DW % of control / Shoot-FW % of control: control = 100.0; for plant health (higher yields and increased plant vigor based on fresh- and dry weights) / tillering: wheat, foliar treatment, 15 and 7.5 g ai/ha. The procedure: Wheat plants (Trificum aestivum cv. Monopol) were grown in soil with ten plants per pot (13 cm diameter) under greenhouse conditions. Plants at the 2nd leaf stage were sprayed with aqueous solutions of formulated compounds: • Compound 1=4-Fluoro-N-[2-(2-fluoro-benzoylamino)-1-methylcarbamoyl-ethyl]-2-trifluoromethyl-benzamide • Compound 2=4-Fluoro-N-[2-(3-fluoro-2-methyl-phenyl)-2-hydroxy-1-methylcarbamoyl-ethyl]-2-trifluoromethyl-benzamide The compounds were applied at two different dose rates (15 and 7.5 g ai/ha) and the spray volume was 750 l/ha. Six replicate pots with ten plants each were used per treatment. After 18 days plants were harvested and growth parameters were determined. The recorded parameters were fresh weight (FW) and dry weight (DW). Mean values of results, standard deviation (SD) and percentage to control were calculated.

Setting [1] is: 7.5 g ai/ha foliar spray at 2nd leaf stage.
[2] abbreviates: 15 g ai/ha foliar spray at 2nd leaf stage.

Regarding `CNC(=O)C(CNC(=O)c1ccccc1F)NC(=O)c1ccc(F)cc1C(F)(F)F` (centres unmarked) [Compound 1, 4-Fluoro-N-[2-(2-fluoro-benzoylamino)-1-methylcarbamoyl-ethyl]-2-trifluoromethyl-benzamide], the “plant health (higher yields and increased plant vigor based on fresh- and dry weights)” value is “strongly increase the plant health”; the tillering entry is recorded as “increase in tillering”. Under setting [1], this compound came in with a Shoot-DW of 3.8 g and a Shoot-FW of 40.6 g. Further, where the note is “7.5 g ai/ha foliar spray”, the “Shoot-DW % of control” value is 134.9 % of control and the “Shoot-FW % of control” value was 132.7 % of control. For the same compound, under setting [2], the Shoot-DW is given as 3.7 g and the Shoot-FW is listed as 38.8 g. Where the note is “15 g ai/ha foliar spray”, the “Shoot-DW % of control” value is 131.0 % of control and the “Shoot-FW % of control” value is 126.9 % of control.
`CNC(=O)C(NC(=O)c1ccc(F)cc1C(F)(F)F)C(O)c1cccc(F)c1C` (centres unmarked) [Compound 2, 4-Fluoro-N-[2-(3-fluoro-2-methyl-phenyl)-2-hydroxy-1-methylcarbamoyl-ethyl]-2-trifluoromethyl-benzamide]: the “plant health (higher yields and increased plant vigor based on fresh- and dry weights)” value is recorded as “strongly increase the plant health”; the tillering entry is reported as “increase in tillering”. Under setting [1], the Shoot-DW amounted to 3.9 g and the Shoot-FW turned out to be 40.2 g. For the same compound, under “7.5 g ai/ha foliar spray”, the “Shoot-DW % of control” value was 138.6 % of control and the “Shoot-FW % of control” value is 131.4 % of control. Under setting [2], the Shoot-DW was found to be 3.9 g and the Shoot-FW is 40.6 g. Under “15 g ai/ha foliar spray”, the “Shoot-DW % of control” value is recorded as 138.2 % of control and the “Shoot-FW % of control” value is 132.8 % of control.
